# Results from paper PMC10458971, “Chemical Constituents with Anti-Lipid Droplet Accumulation and Anti-Inflammatory Activity from Elaeagnus glabra” (Plants, 2023).
# “Also recorded” adds a separate entry of the source. Like-named read-outs stand apart in the source and are kept apart here.
# Assays:
# Assay type in all cases: cell-based
# [1] = system: fMLP/CB-induced human neutrophils; assay: Elastase release in fMLP/CB-induced human neutrophils; conditions: mean ± S.E.M. (n = 3–4)
# Excerpt: (§1) NAFLD is accompanied by inflammation. In the NASH stage, the liver is inflamed. As the NAFLD progresses, persistent inflammation causes scar tissue around the liver; this is called the fibrosis stage. After years of inflammation, liver damage occurs and becomes cirrhosis. To explore the potential of compounds for managing inflammation, eight compounds were preliminarily evaluated for their effects on neutrophil pro-inflammatory responses by suppressing fMLP/CB-induced superoxide anion generation and elastase release (Figure 6 and Table 4). […] These two compounds were further evaluated for their anti-inflammatory activity IC50 values (Table 4).
# (§2) Neutrophils were collected from healthy adults aged 20–35 and isolated using Ficoll-Paque density separation. The study was approved by Chang Gung Memorial Hospital’s Institutional Review Board (IRB No. 201902217A3) following the Declaration of Helsinki guidelines. The methods for testing the effects of isolates on superoxide anion generation and elastase release in neutrophils were based on studies published by Professor Tsong-Long Hwang. Ferricytochrome c (0.6 mg/mL) was used to measure superoxide anion. Elastase substrate (methoxysuccinyl-Ala-Ala-Pro-Val-p-nitroanilide, 100 µM; Merck) was employed to detect the elastase release. The elastase level was detected using a spectrophotometer at OD 405 nm. A PI3K inhibitor, namely, LY29002, was used as a positive control in the neutrophil assays. All assays were repeated at least three times. Results are presented as the mean ± standard error of the mean (S.E.M.). Student′s t-test was used to compare the test isolates with a DMSO (0.1%) control. A probability of less than 0.05 was considered significant.
# [2] = system: fMLP/CB-induced human neutrophils; assay: Superoxide anion generation in fMLP/CB-induced human neutrophils; conditions: for IC50: fMLP/CB-induced human neutrophils, mean ± S.E.M. (n = 3–4); for Inhibitory activity toward superoxide anion generation or elastase release (preliminary screening, Inh%): 10 μM, Figure 6
# Excerpt: as §1, §2
# [3] = Cell viability (nucleus counts, DAPI image) in AML12 cells; conditions: mouse
# Description: (§3) In this study, twelve compounds present in sufficient amounts (9, 11, 15, 16, 18–20, 22, 25, 30, 31, and 37) were evaluated for anti-LD accumulation activity (Table 3). To assess the anti-LD formation activity, the average LD counts/cell of bovine serum albumin (BSA)-conjugated oleic acid (OA) + drug vehicle (DMSO)-treated wells (hereinafter referred to as OA) were used as the standard for 100% fat loading, and triacsin C (TC) was used as the reference control. […] In Figure 5A, the blue pseudocolor indicates the nuclei area, and the green ones depict the LD area.
# (§4) Cells were cultured as described previously. The medium for AML12 (BCRC 60326; Bioresources Collection and Research Center (BCRC), Hsinchu, Taiwan) was a 1:1 mixture of DMEM and Ham’s F12 medium with 10% FBS and 1× ITS-A supplement (Thermo Fisher Scientific).
# [4] = system: AML12 cell line; assay: LD assay: anti-lipid droplet accumulation in oleic-acid-treated AML12 cells (BODIPY 493/503)
# Description: as §3
# Figure 5 Effect of methyl pheophorbide a (37) on LD accumulation. (A) Representative images of the anti-LD formation activity of methyl pheophorbide a (37). (B) Quantification results of the LD assay and cell viability. AML12 cells were treated with BSA or OA (125 µM) with 20 µM methyl pheophorbide a (37) for 24 h. AML12 cells were used as a cell model for lipid accumulation—they were treated with 125 μM oleic acid (OA) for 24 h. Nuclei and LD were stained with Hoechst 33342 (blue) and BODIPY® 493/503 (green), respectively. The asterisk indicates a significant difference from the solvent control cells (*** p < 0.001, one-way ANOVA). TEXT PRINTED IN THE PICTURE: (B) BSA: Normalized LD Count (%): 17.3% *** | (B) OA: Normalized LD Count (%): 100.0% | (B) OA + 37: Normalized LD Count (%): 0.3% ***
# as §4
# The LD accumulation of the test compounds was evaluated according to the studies published by co-author Professor Chia-Hung Yen. The LD accumulation was detected by BODIPY® 493/503 dye (Thermo Fisher Scientific). LD accumulation was achieved by treating cells with OA conjugated to BSA. All data were analyzed with GraphPad Prism 6.01 software (La Jolla, CA, USA). One-way analysis of variance (ANOVA) followed by Tukey’s comparison test was used to compare differences between multiple groups. A p-value < 0.05 was considered statistically significant.
# [5] = system: AML12 cell line; assay: Cell viability (nucleus counts, DAPI image) in AML12 cells; conditions: AML12; for Cell Viability (%, 24h, DAPI Image): compound 100 μg/mL, nucleus counts of DMSO = 100%
# Description: as §3, §4
# [6] = AML12 cells, compound 100 μg/mL, 24 h, AML12, nucleus counts of DMSO = 100%, read-out: Cell Viability (%, 24h, DAPI Image)
# [7] = Mus musculus, compound 100 μg/mL, AML12, average LD counts/cell of oleic-acid-treated group = 100% fat-loading, read-out: Relative Lipid Droplet Count (%)
# [8] = compound 100 μg/mL, AML12, average LD counts/cell of oleic-acid-treated group = 100% fat-loading
# [9] = Mus musculus, AML12, read-out: Relative Lipid Droplet Count (%)
# [10] = compound 100 μg/mL, 24 h, AML12, nucleus counts of DMSO = 100%, read-out: Cell Viability (%, 24h, DAPI Image)
molecule,measurement,setting,value
"C=C(C)C1CCC2(C(=O)O)CCC3(C)C(CCC4C5(C)CCC(OC(=O)C=Cc6ccc(O)c(O)c6)C(C)(C)C5CCC43C)C12 (single isomer, unassigned; (+)) [(+)-3β-O-trans-caffeoyl betulinic acid]",IC50,[1],> 10 µM
same,IC50,[2],> 10 µM
"CC1(C)CCC23CCC4(C)C5(C)CCC6C(C)(CO)C(O)C(O)CC6(C)C5C5OC5C4(OC2=O)C3C1 (stereo not drawn) [2α,3β,23-trihydroxy-11α,12α-epoxyolean-28,13β-olide]",IC50,[1],> 10 µM
same,IC50,[2],> 10 µM
"CC1(C)CC[C@]2(C(=O)O)CC[C@]3(C)C(=CCC4[C@@]5(C)CC[C@H](OC(=O)/C=C/c6ccc(O)c(O)c6)C(C)(C)C5CC[C@]43C)C2C1 (stereo partly shown) [3-O-(E)-caffeoyloleanolic acid (13), 3-O-(E)-caffeoyloleanolic acid]",IC50,[1],> 10 µM
same,"Inhibitory activity toward superoxide anion generation or elastase release (preliminary screening, Inh%)",[2],significant inhibitory activity
same,IC50,[2],3.01 ± 0.58 µM
"O=C(O)c1ccc(CCO)cc1 [4-(2-hydroxyethyl)benzoic acid (26), 4-(2-hydroxyethyl)benzoic acid]",IC50,"[1]; Homo sapiens, Neutrophil",> 10 µM
same,IC50,"[2]; Homo sapiens, Neutrophil",> 10 µM
"Oc1cc(O)c2c(c1)O[C@@H](c1ccc(O)c(O)c1)[C@H](O)C2 [(−)-catechin (16), (−)-catechin]","viability at 24 h, 100 μg/mL",[3]; [6],154 ± 12.3%
same,activity at 100 µg/mL,[4]; [7],111 ± 5.1%
"Oc1cc(O)c2c(c1)O[C@H](c1ccc(O)c(O)c1)[C@H](O)C2 [(−)-epicatechin (18), (−)-epicatechin]","viability at 24 h, 100 μg/mL",[3]; [6],146 ± 10.3%
same,activity at 100 µg/mL,[4]; [7],116 ± 6%
"Oc1cc(O)c2c(c1)O[C@H](c1cc(O)c(O)c(O)c1)[C@H](O)C2 [(−)-epigallocatechin (19), (−)-epigallocatechin]",Relative Lipid Droplet Count (%),[4]; [8],93.5 ± 6.6%
"Oc1cc(O)c2c(c1)O[C@@H](c1cc(O)c(O)c(O)c1)[C@H](O)C2 [(−)-gallocatechin (20), (−)-gallocatechin]","viability at 24 h, 100 μg/mL",[3],154 ± 6.2%
same,activity at 100 µg/mL,[4]; [7],117 ± 7.8%
"O=c1cc(N2CCOCC2)oc2c(-c3ccccc3)cccc12 [LY294002, reference compound]",IC50,"[1]; Homo sapiens, Neutrophil",2.61 ± 0.72 µM
same,IC50,"[2]; Homo sapiens, Neutrophil",1.29 ± 0.52 µM
"CCC/C=C/C/C=C/C=C/C=N/NN=O [TC, Triacsin C, reference compound]","viability at 24 h, 0.008 µM","[3]; positive control, drug concentration 8 nM, 24 h, AML12, DMSO = 100%",126 ± 6.1%
same,activity at 0.008 µM,[4]; [9],60.6 ± 0.2%
"CC1(C)CC[C@]2(C(=O)O)CC[C@]3(C)C(=C[C@@H](O)[C@@H]4[C@@]5(C)C[C@@H](O)[C@H](O)[C@@](C)(CO)[C@@H]5CC[C@]43C)[C@@H]2C1 [cleistocalyxic acid E (7), cleistocalyxic acid E]",IC50,[1],> 10 µM
same,IC50,[2],> 10 µM
"CC1(C)CC[C@@]23CC[C@]4(C)[C@@](OC2=O)([C@@H]3C1)[C@H]1O[C@H]1[C@@H]1[C@@]2(C)CC[C@H](OC(=O)/C=C/c3ccc(O)c(O)c3)C(C)(C)[C@@H]2CC[C@]14C [elaeagterpene A (2), (3S,4aR,6aR,6bS,8aS,12aR,12bS,12cS,13aS,13bR,13cS)-4,4,6a,6b,11,11,13c-Heptamethyl-15-oxooctadecahydro-1H,9H-12b,8a-(epoxymethano)piceno [13,14-b]oxiren-3-yl(E)-3-(3,4-dihydroxyphenyl)acrylate]",IC50,"[1]; Homo sapiens, Neutrophil",> 10 µM
same,IC50,"[2]; Homo sapiens, Neutrophil",> 10 µM
"C=C(C)[C@@H]1CC[C@]2(C)CC[C@]3(C)[C@H](CC[C@@H]4[C@@]5(C)CC[C@H](O)C(C)(C)[C@@H]5CC[C@]43C)[C@@H]12 [lupeol (9), lupeol]","viability at 24 h, 100 μg/mL",[3]; [6],114 ± 3.6%
same,activity at 100 µg/mL,[4]; [7],95.2 ± 1.8%
"C=Cc1c(C)c2cc3nc(c4c5[nH]c(cc6nc(cc1[nH]2)C(C)=C6CC)c(C)c5C(=O)[C@@H]4C(=O)OC)[C@@H](CCC(=O)OC)[C@@H]3C [methyl pheophorbide a (37), methyl pheophorbide a]","viability at 24 h, 100 μg/mL",[3]; [6],99.5 ± 5.4%
same,Cytotoxicity,[5]; 20 μM,without significant cytotoxic effects; also recorded: without cytotoxicity
same,"Cell Viability (%, 24h, DAPI Image)",[5],did not affect the cell viability
same,LD content reduction,"[4]; 20 μM, AML12",more than 90%
same,Normalized LD Count (%) / normalized LD content,"[4]; 20 μM, AML12, OA 125 μM, 24 h, OA = 100%",0.3%
same,activity at 100 µg/mL,[4]; [7],0.3 ± 0.1%
same,IC50,"[1]; Homo sapiens, Neutrophil",< 3 µM
same,IC50,[1],2.35 ± 0.12 µM
same,"Inhibitory activity toward superoxide anion generation or elastase release (preliminary screening, Inh%)",[2],significant inhibitory activity
"COc1cc(C=O)cc(OC)c1O [syringaldehyde (25), syringaldehyde]","viability at 24 h, 100 μg/mL",[3]; [10],138 ± 5.7%
same,activity at 100 µg/mL,[4]; [9],102 ± 5%
same,IC50,[1]; Neutrophil,> 10 µM
same,IC50,[2]; Neutrophil,> 10 µM
"C[C@H]1[C@H](C)CC[C@]2(C(=O)O)CC[C@]3(C)C(=CC[C@@H]4[C@@]5(C)CC[C@H](O)C(C)(C)[C@@H]5CC[C@]43C)[C@H]12 [ursolic acid (11), ursolic acid]","viability at 24 h, 100 μg/mL",[3]; [6],146 ± 4.5%
same,activity at 100 µg/mL,[4]; [7],99.2 ± 4%
"CC[C@H](CC[C@@H](C)[C@H]1CC[C@H]2[C@@H]3CC=C4C[C@@H](O)CC[C@]4(C)[C@H]3CC[C@]12C)C(C)C [β-sitosterol (30), β-sitosterol]","viability at 24 h, 100 μg/mL",[3]; [10],128 ± 9.1%
same,activity at 100 µg/mL,[4]; [9],113 ± 7.6%
"CC[C@H](CC[C@@H](C)[C@H]1CC[C@H]2[C@@H]3CCC4=CC(=O)CC[C@]4(C)[C@H]3CC[C@]12C)C(C)C [β-sitosterone (31), β-sitosterone]","Cell Viability (%, 24h, DAPI Image)",[5],135.3 ± 7.3%
same,Relative Lipid Droplet Count (%),[4]; [8],121.5 ± 4.3%
plumbocatechin A [plumbocatechin A (22)],"Cell Viability (%, 24h, DAPI Image)",[5],147.8 ± 9.6%
same,Relative Lipid Droplet Count (%),[4]; [8],118.2 ± 3.1%
plumbocatechins B [plumbocatechins B (15)],"Cell Viability (%, 24h, DAPI Image)",[5],132.5 ± 11.8%
same,Relative Lipid Droplet Count (%),[4]; [8],105.9 ± 7.8%
